“Also recorded” adds a separate entry of the source. Read-outs that look alike come from different tables or passages of the source.
Key:
[1] = tested on: patients with GI or urinary side effects of an acetylcholinesterase inhibitor; assay: Treatment of side effects of acetylcholinesterase inhibitors (case histories); assay type: in vivo; conditions: for relief of urinary side effects (polyuria, frequency): Detrol / Detrol LA 2-4 mg daily with donepizil; for relief of GI side effects (nausea, diarrhea, frequent bowel movements, cramps): metoclopramide (Reglan) 5 mg before meals and at bedtime, with an acetylcholinesterase inhibitor
Description: Metoclopramide (Reglan®) is an […].
The most extreme example of neuropathic pain arises following amputation where there is complete transection of the nerve. Pain complaints are difficult to manage with the usual combinations of anti-seizure drugs, tricyclic anti-depressants and narcotics.

[2] = tested on: patients with urinary retention; assay: Patient case histories: urinary retention (voiding trials, post void residuals); conditions: for post void residuals (PVR's): before 150-200 cc
cutaneous blood flow = conditions: animal models; cited from earlier work
[3] = tested on: patients with peripheral vascular disease and diabetes mellitus; assay: Patient case histories: microvascular disease / vascular insufficiency; assay type: in vivo, human; conditions: galantamine 4-8 mg two to four times daily
Description: In summary, vascular insufficiency from diabetes is associated with compromise of the microvascular circulation. Treatment with an effective dose of an acetylcholinesterase inhibitor raises the relative concentration of acetylcholine promoting vasodilitation of the microcirculation (end arterioles) through stimulation of neuronal and non-neuronal acetylcholine receptors in the intima of the blood vessels. The beneficial effects of promoting vasodilitation and enhanced tissue perfusion correcting the dystrophic changes and alleviating ischemic pain and ulcers is readily apparent in this series of patients.
The present invention provides a method for the medical management of peripheral vascular disease. The management of peripheral vascular disease with acetylcholinesterase inhibitor addresses the central dilemma in vascular perfusion of the lower extremities. By increasing the relative concentration of acetylcholine, the parasympthetic nervous system is enhanced, improving blood flow at the tissue level by relaxation of the small end arterioles and improving perfusion therefore decreasing vascular edema, enhancing resolution of trohpic ulcers and alleviating rest pain and claudication complaints. The parasympathetic nervous system controls vascular beds in the small arterioles and by increasing the available acetylcholine, dilatation occurs and blood flow improves. By treatment with acetylcholinesterase inhibitors the end results in improved vascular blood supply, decreased congestion at the small arterioles level and improved blood supply. This is particularly necessary in diabetic patients. The presence of non-neuronal acetylcholine receptors with the intima of blood vessels at the microvascular level represents a second physiologic mechanism whereby dilatation of small blood vessels is facilitated by the use of an acetylcholinesterase inhibitor. This latter mechanism owing to the sensitive nature of the cholinesterases associated with the non neuronal acetylcholine system provides sustained cholinergic activity impacting the microvascular circulation and improving perfusion at the critical end arteriole-capillary-venule level.

[4] = tested on: patients with chronic renal insufficiency; assay: Patient case histories: chronic renal insufficiency (serum creatinine, BUN); assay type: in vivo, human; conditions: galantamine 4 mg orally three times daily
Description: To postpone or avoid the sequelae of chronic renal insufficiency, treatment with acetylcholinesterase inhibitors increase the concentration of acetycholine available to promote blood flow to the renal cortex preventing loss of nephrons and allowing existing renal parenchyma to provide the vital function of the kidney. Just as parasympathetic outflow provide homeostatic neural input to the elimination of function of the intestine, the same parasympathetic innervation provides vasodilatation of the small arterioles supplying the cortex of the kidneys allowing for optimal functioning.

[5] = tested on: patients with diabetic polyneuropathy; assay type: in vivo, human
Description: The symptoms of motor and sensory loss of diabetic polyneuropathy are ameliorated by acetylcholinesterase inhibitions by increasing concentration of acetylcholine, the principle neurotransmitter of the parasympathetic nervous system. By augmenting the trophic input of nerves of parasympathic nervous system; pain and dyserethesia are diminished and weakness/atrophy of muscles are diminished. The clinical observation in non-Alzheimer's patients is an improvement in motor and sensory function following treatment with effective doses of an acetylcholinesterase inhibitor. Improved blood flow within the microvascular circulation supplying the vasovasorum of the nerves produces the beneficial effect. By restoring blood flow to the vasovasorum of the nerves ischemic pain is relieved and normal function of the nerve is allowed to occur. The process of vasodilatation of the microvascular circulation is mediated through both neuronal and non-neuronal acetylcholine receptors stimulation by acetylcholine. Enhancement in acetylcholine levels is effected through treatment with acetylcholinesterase inhibitors.
The physiologic shift favoring vasoconstriction that is associated with diabetes is reversed following administration of an acetylcholinesterase inhibitor allowing perfusion of the microvasculature, restoring blood flow to ischemic motor and sensory nerves damaged by the effects of diabetes.

patients with lymphedema = assay type: in vivo, human
Description: The improvement in perfusion within the small arterioles decreases the hydrostatic pressure at the end arterioles and therefore reduces interstitial fluid accumulation that impedes the return of lymph fluid within the lymphatic vessels. The physics model for this phenomenon makes use of Bernouli's equation and its relationship to a Venturi tube. Hydrostatic pressure proximal to a relative stricture creates a pressure gradient that leads to increased transudation that overwhelms the capacity of the lymphatic system to manage. The vasodilatory effects of the parasympathetic nervous system upon small arterioles produces improved perfusion and lessens the accumulation of lymphedema. A common example of lymphedema occurs following joint replacement surgery with swelling that persists for three to six months and sometimes permanently. Lymphedema following joint replacement surgery slows recovery and creates pain while predisposing to deep vein thrombosis and infection.

[6] = tested on: patients with Multiple Sclerosis; assay type: in vivo, human; conditions: galantamine 4 mg orally three times daily, foley catheter removed 48 hours later
Description: The present invention provides an acetylcholinesterase inhibitor to increase the relative concentration of […] within the central nervous system to improve parasympathetic neural transmission and combat the features of M. S. that often present in a craniosacral distribution. Cranial symptoms include mental status changes, emotional lability as well as optic dysfunction and nystgmus. Cranial nerves that control extracular muscles are also affected. Cranial involvement can also manifest as swallowing problems with frank dysphagia. The sacral manifestations of parasympathic dysfunction relate to bowel and bladder control. The symptoms of spastic bladder, urinary retention and constipation are relieved by treatment with an Acetylcholinesterase inhibitor raising the concentrations of acetylcholine to enhance the neural transmission of the parasympathetic nervous system to facilitate normal bowel and bladder function. The craniosacral manifestations of M.S. are reflected in dysfunctional neural transmission associated with the parasympathetic nervous system and can be ameliorated or corrected by treatment with an acetylcholinesterase inhibitor. Improved blood flow within the vasovasorum of the myelin sheath/nerve is also considered useful in amelioration of MS symptoms. […]

[7] = tested on: patients with phantom pain; assay: Patient case histories: phantom pain following amputation; assay type: in vivo, human
Description: The present invention further provides a method of treating phantom pain following amputation in both upper and lower extremities. “Phantom pain” is a phenomenon described following amputation of either an upper or lower extremity. The sensation is common following amputation and present with varying degrees of discomfort and debility. A patient with phantom pain is typically treated with antidepressants, Neurontin® (gabapeninand) narcotics to a varying degree. The use of acetylcholinesterase inhibitors decreases the need for narcotics and generally eliminates the need for poly pharmacy improving pain, enhancing wound healing and improved sleep pattern in amputee patients. The dose of acetylcholinesterase inhibitor is titrated to GI (gastrointestinal) tolerance with bowel movement consistency and frequency the determining factors. Treatment with acetylcholinesterase inhibitor increases the available acetylcholine which is the neurotransmitter responsible for activation of the parasysmpathic nervous system appear responsible for Noxious symptoms of phantom pain for discomfort. The present invention provides a method of treating phantom pain associated with amputation of either upper or lower extremity.

[8] = tested on: patients with rheumatologic conditions (RA, SLE, PMR, polymyositis); assay: Patient case histories: rheumatological conditions; assay type: in vivo, human
Description: The use of an acetylcholinesterase inhibitor raises level of acetylcholine by inhibition of cholinesterase. The Increased levels of acetylcholine stimulate neuronal receptors of the parasympathetic nervous system and non-neuronal receptors associated with the intima of blood vessels and leukocytes. This dual effect of improving flow within the microvascular circulation and stabilization of leukocytes and their adhesion to the wall of blood vessel produces the anti-inflammatory effect that is observed with the use of an acetylcholinesterase inhibitor for treatment of rheumatologic diseases.

[9] = tested on: patients with myofascial pain / fibromyalgia; assay: Patient case histories: fibromyalgia / myofascial pain syndrome; assay type: in vivo, human
Description: The present invention provides a method for treating fibromyalgia and myofascial pain syndrome by increasing tissue levels of acetylcholine. Acetylcholine is the neurotransmitter of the parasympathic nervous system. The inventive method increases the relative amount of parasympathetic transmission and thereby facilitates resolution of the pain areas and diminishes the need for narcotics and polypharmacy. The reduction in the use of narcotics, NSAIDs, and tricyclic antidepressants and other medications used for pain having their deleterious side effects is a major benefit. By administration of acetyl cholinesterase inhibitor, the relative concentrations of acetylcholine are increased and available to propagate the impulses of the parasympathic nervous systems and within the non-neuronal acetylcholine receptors diminishing pain and spasms. […] The influence of non-neuronal acetylcholine receptors affected by enhanced levels of acetylcholine produces a reduction in pro-inflammatory mediators and increased blood flow to the nerve fibers involved in pain transmission. The net effect is a reduction in inflammation and improved blood flow to the vasovasorum of the affected nerves reducing the painful sensations.

[10] = tested on: patients with neuropathic pain; conditions: rivastigmine test dose
[11] = tested on: patients with Parkinson's disease; conditions: rivastigmine 1.5-3 mg twice daily
[12] = tested on: regional blood flow in the brain; conditions: PET scanning; Alzheimer's patients and normal subjects; cited from earlier work
[13] = rivastigmine 1.5 mg twice daily

SMILES: Cc1ccc(O)c([C@H](CCN(C(C)C)C(C)C)c2ccccc2)c1 [Detrol LA, tolterodine]
- relief of urinary side effects (polyuria, frequency) [1]: prompt reduction in their urinary frequency; also recorded: able to tolerate this regimen
- relief of urinary side effects (polyuria, frequency) ([1]; listed as Detrol): treated successfully

SMILES: CCOc1ccccc1OCCN[C@H](C)Cc1ccc(OC)c(S(N)(=O)=O)c1 [Flomax]
- voiding trial ([2]; Flomax 0.4 mg, then 0.8 mg, residuals in excess of 300 cc's before): first voiding trial was unsuccessful; also recorded: second voiding trial was also unsuccessful

SMILES: CC(=O)OC(C)C[N+](C)(C)C (stereo not shown) [Methacholine]
- cutaneous blood flow and skin temperature (cutaneous blood flow): increases cutaneous blood flow and skin temperature

SMILES: CCN(CC)CCNC(=O)c1cc(Cl)c(N)cc1OC [Reglan, metoclopramide]
- relief of GI side effects (nausea, diarrhea, frequent bowel movements, cramps) [1]: able to continue treatment with donepizil; also recorded: prompt resolution of their GI complaints; also recorded: prompt relief of their GI complaints; also recorded: treated successfully
- relief of GI side effects (nausea, diarrhea, frequent bowel movements, cramps) ([1]; listed as metoclopramide): easily managed; also recorded: ameliorated or eliminated

SMILES: COc1ccc2c3c1O[C@H]1C[C@@H](O)C=C[C@@]31CCN(C)C2 [galantamine]
- side effects [3]: No symptoms of diarrhea or gastroesophageal reflux disease (GERD) were reported; also recorded: no untoward side effects
- serum creatinine ([4]; before treatment 1.8): 1.4
- BUN (blood urea nitrogen) ([4]; before treatment 32): 21
- improvement in Left foot drop ([5]; galantamine titrated to 8 mg TID (a person)): 80-85%
- side effects (patients with lymphedema; galantamine 4 mg orally three times daily, asthma patient): without compromise of their pulmonary condition
- post void residuals [6]: < 100 cc
- side effects ([7]; galantamine 4 mg BID titrated to four times a day): without nausea/vomiting or GI upset
- use of Oxycodone/APAP ([7]; galantamine 8 mg BID over two weeks, before: 5 tablets per day): 2-3 tablets per week
- side effects ([8]; galantamine 4-8 mg three times daily): no adverse side effects of diarrhea or nausea
- post void residuals (PVR's) ([2]; galantamine 4 mg orally three times daily): under 100 cc
- side effects ([2]; galantamine 4 mg three times daily to 8 mg two or three times daily): no untoward side effects; also recorded: mild nausea (without emesis)
- post void residuals (PVR's) ([2]; galantamine 8 mg orally twice daily): ~50 cc

SMILES: CCN(C)C(=O)Oc1cccc([C@H](C)N(C)C)c1 [rivastigmine]
- course after the drug was withdrawn or lapsed ([5]; drug stopped after initial improvement): complaints of weakness and loss of ambulatory ability
- side effects ([9]; rivastigmine): no ill effects; also recorded: no adverse side effects
- clinical outcome (pain) [9, 13]: significant improvement; also recorded: greater control of their pain
- clinical outcome (pain) ([9]; rivastigmine 3 mg twice daily): near complete alleviation in their pain; also recorded: pain symptoms became less frequent
- clinical outcome (narcotic use) ([9]; rivastigmine 4 mg orally twice daily titrated upward to 8 mg three times daily): use of narcotics was completely eliminated
- side effects (patients with lymphedema; [13]): no ill side effects
- clinical outcome (swelling, warmth, pain) ([8]; rivastigmine 1.5 mg orally twice daily, Rheumatoid Arthritis flair-up): signs of swelling and warmth improved but the patient still had complaints of pain
- clinical outcome (pain, swelling) ([8]; rivastigmine 3 mg orally twice daily, Rheumatoid Arthritis flair-up): pain symptoms resolved within a day; also recorded: concomitant improvement in their lower extremity swelling
- side effects ([8]; rivastigmine 1.5-3 mg twice daily): no adverse side effects such as dyspepsia, diarrhea or polyuria
- recurrence under prophylaxis ([8]; rivastigmine lower dose for prophylaxis, three month): no recurrence of pain or swelling
- clinical outcome (phantom pain) [10]: notable improvement in their phantom pain within one hour
- side effects [11]: no negative side effects
- regional blood flow in the brain / CNS structures [12]: Regional blood flow is increased; also recorded: improve blood flow to CNS structures; also recorded: improve regional blood flow in the brain

Source: patent US20060183733A1, “Treating microvasculature diseases with acetyl cholinesterase inhibitors” (priority 2005, published 2006)
